Measurements as given in ChEMBL document CHEMBL1201862, “PubChem BioAssay data set” (2004).
Activity calls are given as the source filed them.

Columns and labels:
[1] = target: Voltage-gated inwardly rectifying potassium channel KCNH2 (Homo sapiens, UniProt Q12809); settings: Potency;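 note: confirmatory quantitative high-throughput screen measuring inhibition of hERG channel activity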
[2] = inhibitors of intracellular T. cruzi replication, confirmation, NIH3T3 host cells, beta-gal luminescence (AID 2044); format: functional, cell-based;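 note: intracellular parasites grown in NIH/3T3 mouse fibroblasts as host cells; luminescent beta-galactosidase reporter signal from transgenic T. cruzi replicating inside host cells; inhibitors lower the luminescence signal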
[3] = cytotoxicity toward NIH3T3 fibroblasts, dose response, counter-screen, cell-based, ATP luminescence, mouse fibroblasts (AID 2010); format: functional;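 note: cells exposed to compound for about 90 hours before reading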
Vero [4] = assay: cells; format: functional, cell-based; settings: Chlorocebus sabaeus
Vero [5] = assay: cells; format: functional; settings: Chlorocebus sabaeus
CAAX prenyl protease 2 = target: T1, CAAX prenyl protease 2 (Homo sapiens, UniProt Q9Y256); assay: human Rce1 protease inhibitors, dose response, biochemical, yeast membranes, quenched-peptide fluorescence, cherry-pick (AID 588849)
T1 sequence (Q9Y256 whole entry): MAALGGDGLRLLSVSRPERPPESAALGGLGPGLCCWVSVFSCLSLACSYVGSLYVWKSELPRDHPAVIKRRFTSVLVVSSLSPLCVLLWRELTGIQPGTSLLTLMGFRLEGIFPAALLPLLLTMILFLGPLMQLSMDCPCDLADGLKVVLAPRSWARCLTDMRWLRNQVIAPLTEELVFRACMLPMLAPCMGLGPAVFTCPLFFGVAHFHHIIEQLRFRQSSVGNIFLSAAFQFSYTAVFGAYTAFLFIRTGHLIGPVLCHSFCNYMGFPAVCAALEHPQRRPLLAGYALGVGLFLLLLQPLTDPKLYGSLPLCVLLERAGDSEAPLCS

[6] = target: T2, Corticotropin-releasing factor receptor 2/Corticotropin-releasing factor-binding protein (Homo sapiens, UniProt P24387+Q13324); assay: Dose Response confirmation of uHTS hits for small molecule antagonists of the CRF-binding protein and CRF-R2 receptor complex.; format: functional; settings: read-out: IC50_Mean
T2 sequence (Q13324 whole entry): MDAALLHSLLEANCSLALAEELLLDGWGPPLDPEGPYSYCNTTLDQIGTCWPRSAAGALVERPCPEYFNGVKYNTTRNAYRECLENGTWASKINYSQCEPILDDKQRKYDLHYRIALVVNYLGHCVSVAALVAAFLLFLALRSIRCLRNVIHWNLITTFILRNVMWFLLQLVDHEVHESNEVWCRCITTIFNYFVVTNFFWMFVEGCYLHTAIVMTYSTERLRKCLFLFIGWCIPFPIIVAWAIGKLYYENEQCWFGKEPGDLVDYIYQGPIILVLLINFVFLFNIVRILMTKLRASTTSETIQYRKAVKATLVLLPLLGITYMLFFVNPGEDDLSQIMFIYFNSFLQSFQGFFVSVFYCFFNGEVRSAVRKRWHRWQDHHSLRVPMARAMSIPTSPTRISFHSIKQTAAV
T2 sequence (P24387 whole entry): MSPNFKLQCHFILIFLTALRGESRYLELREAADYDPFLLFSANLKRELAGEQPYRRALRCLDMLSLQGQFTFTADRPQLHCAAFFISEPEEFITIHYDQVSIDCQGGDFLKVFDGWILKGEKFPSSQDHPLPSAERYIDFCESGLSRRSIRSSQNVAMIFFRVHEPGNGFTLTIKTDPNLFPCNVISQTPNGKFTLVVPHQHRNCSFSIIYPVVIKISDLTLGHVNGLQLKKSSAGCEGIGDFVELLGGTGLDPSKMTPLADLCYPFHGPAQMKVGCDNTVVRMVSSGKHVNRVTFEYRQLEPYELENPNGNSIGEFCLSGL

[7] = target: T2, Corticotropin-releasing factor receptor 2/Corticotropin-releasing factor-binding protein; assay: activators of CRF receptor 2 with binding protein – uHTS hits, confirmation (AID 602473); format: functional; settings: read-out: EC50_Mean
[8] = target: DNA dC->dU-editing enzyme APOBEC-3A (Homo sapiens, UniProt P31941); assay: Dose Response confirmation of small molecule APOBEC3A DNA Deaminase Inhibitors via a fluorescence-based single-stranded DNA deaminase assay. [Related pubchem assays (depositor defined):AID493011, AID493024]; format: functional
[9] = target: DNA dC->dU-editing enzyme APOBEC-3G (Homo sapiens, UniProt Q9HC16); format: functional;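 note: Dose-response counterscreen measuring inhibition of APOBEC3G DNA deaminase activity, run while confirming APOBEC3A inhibitors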
Cytochrome P450 2C19 = Cytochrome P450 2C19 (Homo sapiens, UniProt P33261); assay: Cytochrome panel assay with activity outcomes. Panel member name: p450-cyp2c19 Compounds with AC50 equal or less than 10 uM are considered active; format: functional
Cytochrome P450 2C9 = Cytochrome P450 2C9 (Homo sapiens, UniProt P11712)
Cytochrome P450 3A4 = Cytochrome P450 3A4 (Homo sapiens, UniProt P08684);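 note: CYP3A4 tested as one member of a cytochrome P450 panel screen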
[10] = target: T3, Carboxy-terminal domain RNA polymerase II polypeptide A small phosphatase 1 (Homo sapiens, UniProt Q9GZU7); assay: inhibitors of CTDSP1, concentration-response testing, biochemical assay, absorbance-based, actives from ultra-high-throughput screening (AID 540297); format: functional
T3 sequence (Q9GZU7 whole entry): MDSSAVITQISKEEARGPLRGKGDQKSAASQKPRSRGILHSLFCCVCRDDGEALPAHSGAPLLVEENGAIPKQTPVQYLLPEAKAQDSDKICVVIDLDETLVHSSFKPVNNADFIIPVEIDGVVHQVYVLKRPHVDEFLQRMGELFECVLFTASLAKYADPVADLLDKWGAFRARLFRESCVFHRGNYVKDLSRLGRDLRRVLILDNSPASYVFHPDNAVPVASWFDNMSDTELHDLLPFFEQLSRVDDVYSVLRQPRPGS

[11] = growth induction of Burl-1 ts yeast mutant, dose response, counter-screen for SUMOylation pathway inhibitor project, whole organism, S. cerevisiae, luminescence (AID 463199); format: functional
[12] = target: Glyceraldehyde-3-phosphate dehydrogenase (Homo sapiens, UniProt P04406)
[13] = target: T4, Alkaline phosphatase, tissue-nonspecific isozyme (Homo sapiens, UniProt P05186); assay: human TNAP enzyme inhibitors, SAR follow-up, biochemical, luminescent, dose response (AID 1056)
T4 sequence (P05186 whole entry): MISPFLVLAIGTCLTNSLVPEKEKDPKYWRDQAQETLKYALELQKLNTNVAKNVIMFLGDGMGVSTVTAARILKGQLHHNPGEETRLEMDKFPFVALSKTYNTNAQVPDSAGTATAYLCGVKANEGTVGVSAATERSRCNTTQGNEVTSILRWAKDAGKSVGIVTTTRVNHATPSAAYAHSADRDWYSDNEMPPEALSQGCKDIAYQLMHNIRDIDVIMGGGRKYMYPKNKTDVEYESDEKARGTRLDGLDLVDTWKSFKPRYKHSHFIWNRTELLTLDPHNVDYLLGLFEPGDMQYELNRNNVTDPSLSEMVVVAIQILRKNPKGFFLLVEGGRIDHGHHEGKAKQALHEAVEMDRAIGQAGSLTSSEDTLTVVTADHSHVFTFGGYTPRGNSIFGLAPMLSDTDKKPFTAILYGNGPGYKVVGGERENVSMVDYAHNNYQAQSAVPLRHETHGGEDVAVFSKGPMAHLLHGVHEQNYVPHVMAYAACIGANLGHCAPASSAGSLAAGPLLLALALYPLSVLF

Beta-galactosidase = Beta-galactosidase (Escherichia coli, UniProt Q8VNN2); assay: PubChem AID 485352; format: functional
[14] = target: T5, Type-1 angiotensin II receptor (Homo sapiens, UniProt P30556); assay: AT1 receptor antagonists, dose response, selectivity assay for APJ receptor antagonist project, cell-based, uHTS hits (AID 463214); format: functional;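 note: antagonist potency against angiotensin II stimulated AT1 response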
T5 sequence (P30556 whole entry): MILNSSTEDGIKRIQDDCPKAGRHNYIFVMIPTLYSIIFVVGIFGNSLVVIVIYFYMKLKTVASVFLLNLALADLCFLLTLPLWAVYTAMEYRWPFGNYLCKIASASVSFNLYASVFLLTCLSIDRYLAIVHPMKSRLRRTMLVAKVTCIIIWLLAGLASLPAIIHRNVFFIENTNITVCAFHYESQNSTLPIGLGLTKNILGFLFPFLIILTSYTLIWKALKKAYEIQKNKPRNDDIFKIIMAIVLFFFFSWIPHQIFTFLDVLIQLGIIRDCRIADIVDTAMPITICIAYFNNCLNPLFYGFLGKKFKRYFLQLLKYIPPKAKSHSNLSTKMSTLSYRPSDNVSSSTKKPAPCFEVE

Sequence of DNA dC->dU-editing enzyme APOBEC-3A (P31941 whole entry): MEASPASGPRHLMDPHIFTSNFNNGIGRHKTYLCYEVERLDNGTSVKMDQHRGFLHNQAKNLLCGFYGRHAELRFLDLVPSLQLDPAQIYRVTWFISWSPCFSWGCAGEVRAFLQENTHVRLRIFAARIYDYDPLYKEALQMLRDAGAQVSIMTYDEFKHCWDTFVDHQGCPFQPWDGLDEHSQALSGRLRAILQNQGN
Sequence of DNA dC->dU-editing enzyme APOBEC-3G (Q9HC16 whole entry): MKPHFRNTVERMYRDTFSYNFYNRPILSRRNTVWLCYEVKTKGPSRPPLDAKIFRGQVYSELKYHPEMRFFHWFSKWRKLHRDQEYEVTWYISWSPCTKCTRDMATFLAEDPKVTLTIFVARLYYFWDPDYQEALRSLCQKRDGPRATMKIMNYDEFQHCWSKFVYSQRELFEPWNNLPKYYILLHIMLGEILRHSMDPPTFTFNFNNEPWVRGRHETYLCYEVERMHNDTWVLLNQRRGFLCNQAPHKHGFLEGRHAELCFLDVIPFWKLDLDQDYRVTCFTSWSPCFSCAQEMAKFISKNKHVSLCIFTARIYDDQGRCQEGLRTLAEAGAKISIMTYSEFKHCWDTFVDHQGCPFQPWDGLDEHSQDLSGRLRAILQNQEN
Sequence of Cytochrome P450 2C9 (P11712 whole entry): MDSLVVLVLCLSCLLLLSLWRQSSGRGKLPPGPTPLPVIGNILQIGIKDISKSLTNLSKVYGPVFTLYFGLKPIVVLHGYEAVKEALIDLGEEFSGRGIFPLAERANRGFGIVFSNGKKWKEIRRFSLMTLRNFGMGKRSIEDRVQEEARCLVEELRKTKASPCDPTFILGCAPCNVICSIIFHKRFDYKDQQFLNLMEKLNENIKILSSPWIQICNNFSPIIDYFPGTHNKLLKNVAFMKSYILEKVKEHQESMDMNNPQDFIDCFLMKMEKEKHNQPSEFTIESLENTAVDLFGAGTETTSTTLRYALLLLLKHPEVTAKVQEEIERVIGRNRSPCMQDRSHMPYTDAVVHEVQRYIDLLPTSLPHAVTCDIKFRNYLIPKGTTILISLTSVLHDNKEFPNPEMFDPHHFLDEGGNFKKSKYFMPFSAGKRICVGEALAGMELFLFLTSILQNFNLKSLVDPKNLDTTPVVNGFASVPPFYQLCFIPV
Sequence of Beta-galactosidase (Q8VNN2 whole entry): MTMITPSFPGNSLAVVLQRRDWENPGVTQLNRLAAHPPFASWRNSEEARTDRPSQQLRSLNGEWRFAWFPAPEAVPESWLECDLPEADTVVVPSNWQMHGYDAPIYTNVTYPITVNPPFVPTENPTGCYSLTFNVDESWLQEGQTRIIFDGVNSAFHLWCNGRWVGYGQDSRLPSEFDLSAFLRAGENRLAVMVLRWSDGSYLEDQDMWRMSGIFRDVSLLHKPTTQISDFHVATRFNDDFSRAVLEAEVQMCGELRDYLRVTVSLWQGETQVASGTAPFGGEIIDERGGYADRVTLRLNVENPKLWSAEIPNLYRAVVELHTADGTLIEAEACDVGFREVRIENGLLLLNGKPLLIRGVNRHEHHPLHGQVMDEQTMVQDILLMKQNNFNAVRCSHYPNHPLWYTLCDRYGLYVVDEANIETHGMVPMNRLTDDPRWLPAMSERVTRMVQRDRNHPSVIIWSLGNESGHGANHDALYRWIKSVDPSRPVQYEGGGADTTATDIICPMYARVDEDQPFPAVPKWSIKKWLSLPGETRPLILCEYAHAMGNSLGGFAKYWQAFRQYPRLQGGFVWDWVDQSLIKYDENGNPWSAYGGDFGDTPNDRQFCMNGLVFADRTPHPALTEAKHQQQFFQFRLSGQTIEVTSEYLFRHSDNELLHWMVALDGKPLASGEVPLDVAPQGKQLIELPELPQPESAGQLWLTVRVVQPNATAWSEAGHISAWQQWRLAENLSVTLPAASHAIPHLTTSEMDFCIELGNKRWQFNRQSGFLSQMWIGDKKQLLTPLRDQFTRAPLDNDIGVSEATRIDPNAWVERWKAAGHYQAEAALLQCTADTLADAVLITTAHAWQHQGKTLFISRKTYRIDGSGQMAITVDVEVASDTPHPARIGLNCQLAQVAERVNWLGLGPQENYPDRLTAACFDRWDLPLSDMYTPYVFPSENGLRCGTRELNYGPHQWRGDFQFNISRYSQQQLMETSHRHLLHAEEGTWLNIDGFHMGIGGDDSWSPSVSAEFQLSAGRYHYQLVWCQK
Sequence of Voltage-gated inwardly rectifying potassium channel KCNH2 (Q12809 whole entry): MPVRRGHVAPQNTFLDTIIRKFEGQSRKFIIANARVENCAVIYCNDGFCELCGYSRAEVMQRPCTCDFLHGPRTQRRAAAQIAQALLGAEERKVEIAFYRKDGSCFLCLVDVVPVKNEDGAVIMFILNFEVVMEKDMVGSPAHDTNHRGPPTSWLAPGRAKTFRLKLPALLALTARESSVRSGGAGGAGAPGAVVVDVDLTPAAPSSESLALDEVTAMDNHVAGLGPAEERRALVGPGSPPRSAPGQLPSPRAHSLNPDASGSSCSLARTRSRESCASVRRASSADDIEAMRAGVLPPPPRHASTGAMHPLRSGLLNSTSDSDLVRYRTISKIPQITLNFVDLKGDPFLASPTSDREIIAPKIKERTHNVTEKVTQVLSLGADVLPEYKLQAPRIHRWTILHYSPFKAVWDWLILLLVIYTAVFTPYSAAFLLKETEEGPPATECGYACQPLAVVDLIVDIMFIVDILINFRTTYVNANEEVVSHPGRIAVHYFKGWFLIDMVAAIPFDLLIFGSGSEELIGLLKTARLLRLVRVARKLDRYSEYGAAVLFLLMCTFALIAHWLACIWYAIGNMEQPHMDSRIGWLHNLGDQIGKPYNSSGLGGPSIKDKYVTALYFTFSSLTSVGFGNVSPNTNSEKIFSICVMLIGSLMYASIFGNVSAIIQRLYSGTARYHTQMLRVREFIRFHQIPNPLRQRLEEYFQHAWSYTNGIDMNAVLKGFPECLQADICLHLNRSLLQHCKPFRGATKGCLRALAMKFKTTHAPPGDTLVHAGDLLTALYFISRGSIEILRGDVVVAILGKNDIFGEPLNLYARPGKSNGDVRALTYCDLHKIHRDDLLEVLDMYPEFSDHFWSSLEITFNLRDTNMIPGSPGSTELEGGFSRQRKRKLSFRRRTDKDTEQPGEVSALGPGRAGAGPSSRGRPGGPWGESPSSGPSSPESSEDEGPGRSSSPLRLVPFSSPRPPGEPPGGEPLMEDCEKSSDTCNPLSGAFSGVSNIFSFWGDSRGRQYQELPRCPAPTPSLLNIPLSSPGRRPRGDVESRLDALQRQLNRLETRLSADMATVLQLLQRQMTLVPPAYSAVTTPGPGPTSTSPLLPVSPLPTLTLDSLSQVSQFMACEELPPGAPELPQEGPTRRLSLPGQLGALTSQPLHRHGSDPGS
Sequence of Cytochrome P450 3A4 (P08684 whole entry, the tested form may be a part): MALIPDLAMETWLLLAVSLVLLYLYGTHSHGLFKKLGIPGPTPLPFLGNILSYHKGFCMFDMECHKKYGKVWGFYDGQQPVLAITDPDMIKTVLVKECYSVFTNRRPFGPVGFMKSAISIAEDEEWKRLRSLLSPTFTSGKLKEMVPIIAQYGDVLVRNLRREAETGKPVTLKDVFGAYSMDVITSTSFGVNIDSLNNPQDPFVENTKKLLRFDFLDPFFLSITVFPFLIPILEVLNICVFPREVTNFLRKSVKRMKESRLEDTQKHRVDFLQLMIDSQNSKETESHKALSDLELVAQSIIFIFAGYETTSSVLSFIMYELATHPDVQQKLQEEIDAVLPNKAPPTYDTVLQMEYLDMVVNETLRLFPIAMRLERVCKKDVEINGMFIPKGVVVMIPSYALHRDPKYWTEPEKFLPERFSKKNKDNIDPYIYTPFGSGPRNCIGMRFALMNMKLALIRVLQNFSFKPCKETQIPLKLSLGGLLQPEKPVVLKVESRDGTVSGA
Sequence of Cytochrome P450 2C19 (P33261 whole entry): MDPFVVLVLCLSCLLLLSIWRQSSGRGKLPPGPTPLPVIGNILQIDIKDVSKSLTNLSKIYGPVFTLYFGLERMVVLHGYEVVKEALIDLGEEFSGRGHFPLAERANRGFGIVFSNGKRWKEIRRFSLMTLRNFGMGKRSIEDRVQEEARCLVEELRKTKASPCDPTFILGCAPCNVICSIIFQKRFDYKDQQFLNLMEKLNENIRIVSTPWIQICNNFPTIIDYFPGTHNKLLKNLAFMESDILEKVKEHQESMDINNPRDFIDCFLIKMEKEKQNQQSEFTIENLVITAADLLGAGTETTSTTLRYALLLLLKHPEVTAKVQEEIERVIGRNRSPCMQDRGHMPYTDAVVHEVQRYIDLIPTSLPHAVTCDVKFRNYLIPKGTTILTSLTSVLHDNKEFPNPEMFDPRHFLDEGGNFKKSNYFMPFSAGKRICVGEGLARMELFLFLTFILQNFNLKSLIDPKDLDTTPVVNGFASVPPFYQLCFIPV
Sequence of Glyceraldehyde-3-phosphate dehydrogenase (P04406 whole entry): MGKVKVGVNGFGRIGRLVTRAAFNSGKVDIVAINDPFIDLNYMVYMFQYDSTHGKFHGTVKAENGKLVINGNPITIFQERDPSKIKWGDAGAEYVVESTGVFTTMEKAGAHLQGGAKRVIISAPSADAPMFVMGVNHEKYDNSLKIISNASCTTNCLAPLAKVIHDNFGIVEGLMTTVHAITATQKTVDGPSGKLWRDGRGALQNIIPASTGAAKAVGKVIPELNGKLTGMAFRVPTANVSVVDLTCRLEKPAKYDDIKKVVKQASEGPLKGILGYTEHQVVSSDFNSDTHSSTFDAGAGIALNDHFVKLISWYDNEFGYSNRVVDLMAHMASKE

## CC(C)C[C@H](N)CSSC[C@@H](N)CC(C)C
[1]
  AC50: 35.5 µM (inconclusive)

## OC(COc1ccc(CNCCc2ccc(C(F)(F)F)cc2)cc1)CN1CCCCC1 (configuration not stated)
[2]
  EC50: 1.26 µM (active)
[3]
  EC50: 5.08 µM (active)
Vero [4]
  IC50: 8.76 µM (active)
Vero [5]
  CC50: 16.4 µM (active)

## CS(=O)(=O)Nc1ccccc1C(=O)NCc1ccccc1Cl
CAAX prenyl protease 2
  AC50: 12.8 µM (active)
[6]
  IC50: > 47.1 µM (inactive)
[7]
  EC50: > 53 µM (inactive)

## COc1ccc(N2CC(C(=O)NCc3ccco3)CC2=O)cc1 (configuration not stated)
[8]
  IC50: 39.6 µM (active)
[9]
  IC50: 21.2 µM (active)

## CC(=O)N1CCN(c2ccc(NC(=O)c3ccc(C)cc3)cc2)CC1
Cytochrome P450 2C19
  AC50: 15.8 µM (inconclusive)
Cytochrome P450 2C9
  AC50: 39.8 µM (inconclusive)
Cytochrome P450 3A4
  AC50: inconclusive

## Cc1cc(C(=O)NCc2ccc(C(=O)O)o2)c(C)o1
[8]
  IC50: 31 µM (active)
[9]
  IC50: 45.9 µM (active)
[10]
  IC50: 4.04 µM (active)

## Cc1csc2nc(=O)c3ccccc3n12
CAAX prenyl protease 2
  AC50: 63 µM (active)

## CC1CCN(C(=O)Cn2cnc3c2c(=O)n(C)c(=O)n3C)c2ccccc2S1 (configuration not stated)
[11]
  AC50: 87.7 µM (active)

## O=C1C(Cl)=C(Cl)C(=O)N1c1nnc(Cc2ccccc2)[nH]1
[12]
  IC50: > 100 µM (not active)
[13]
  IC50: 3.24 µM (active)

## COc1ccc(C(=O)CNc2cccc(F)c2)cc1
Beta-galactosidase
  EC50: > 40 µM (inactive)
[14]
  IC50: 28 µM (not active)
